In brackets after ≈: the same amount, converted by molar mass. Read-outs that look alike come from different tables or passages of the source.
How the values were obtained:
[1] = tested on: Stenotrophomonas maltophilia; test: MIC/MBC against CF isolates (CLSI, alamar blue); settings: Stenotrophomonas maltophilia
[2] = tested on: Acinetobacter baumannii; test: MIC/MBC against clinical isolates (CLSI, alamar blue); settings: Acinetobacter baumannii
[3] = tested on: Pseudomonas aeruginosa; test: MIC/MBC against CF isolates (CLSI, alamar blue)
[4] = tested on: Burkholderia cenocepacia; test: MIC/MBC against CF isolates (CLSI, alamar blue); settings: Burkholderia cenocepacia
[5] = CF Stenotrophomonas isolate NB41
[6] = CF Stenotrophomonas isolate NB42
[7] = CF Stenotrophomonas isolate NB43
[8] = CF Stenotrophomonas isolate NB44
[9] = CF Stenotrophomonas isolate NB45
[10] = CF Stenotrophomonas isolate Steno 1
[11] = CF Stenotrophomonas isolate Steno 2
[12] = CF Stenotrophomonas isolate Steno 3
[13] = CF Stenotrophomonas isolate Steno 4
[14] = CF Stenotrophomonas isolate Steno 6
[15] = CF Stenotrophomonas isolate Steno 8
[16] = Pseudomonas aeruginosa, CF Pseudomonas isolate NB1
[17] = Pseudomonas aeruginosa, CF Pseudomonas isolate NB2
[18] = Pseudomonas aeruginosa, CF Pseudomonas isolate NB3
[19] = Pseudomonas aeruginosa, CF Pseudomonas isolate NB4
[20] = Pseudomonas aeruginosa, CF Pseudomonas isolate NB5
[21] = Pseudomonas aeruginosa, CF Pseudomonas isolate NB6
[22] = Pseudomonas aeruginosa, CF Pseudomonas isolate NB7
[23] = Pseudomonas aeruginosa, CF Pseudomonas isolate NB8
[24] = Pseudomonas aeruginosa, CF Pseudomonas isolate NB9
[25] = Pseudomonas aeruginosa, CF Pseudomonas isolate NB10
[26] = Pseudomonas aeruginosa, CF Pseudomonas isolate NB11
[27] = Pseudomonas aeruginosa, CF Pseudomonas isolate NB12
[28] = Pseudomonas aeruginosa, CF Pseudomonas isolate NB13
[29] = Pseudomonas aeruginosa, CF Pseudomonas isolate NB14
[30] = Pseudomonas aeruginosa, CF Pseudomonas isolate NB15
[31] = Pseudomonas aeruginosa, CF Pseudomonas isolate NB16
[32] = Pseudomonas aeruginosa, CF Pseudomonas isolate NB17
[33] = Pseudomonas aeruginosa, CF Pseudomonas isolate NB18
[34] = Pseudomonas aeruginosa, CF Pseudomonas isolate NB19
[35] = Pseudomonas aeruginosa, CF Pseudomonas isolate NB20

CO[C@@]1(NC(=O)Cc2cccs2)C(=O)N2C(C(=O)O)=C(COC(N)=O)CS[C@@H]21 [Cefoxitin]
MIC50 [1]: > 256 µg/mL
MIC90 [1]: > 256 µg/mL
MBC [1, 5]: > 256 µg/mL
MIC [1, 5]: > 256 µg/mL
MBC [1, 6]: > 256 µg/mL
MIC [1, 6]: > 256 µg/mL
MBC [1, 7]: > 256 µg/mL
MIC [1, 7]: > 256 µg/mL
MBC [1, 8]: > 256 µg/mL
MIC [1, 8]: 256 µg/mL (≈ 599 µM)
MBC [1, 9]: > 256 µg/mL
MIC [1, 9]: > 256 µg/mL
MBC [1, 10]: > 256 µg/mL
MIC [1, 10]: > 256 µg/mL
MBC [1, 11]: > 256 µg/mL
MIC [1, 11]: > 256 µg/mL
MBC [1, 12]: > 256 µg/mL
MIC [1, 12]: 256 µg/mL (≈ 599 µM)
MBC [1, 13]: 256 µg/mL (≈ 599 µM)
MIC [1, 13]: 256 µg/mL (≈ 599 µM)
MBC [1, 14]: 256 µg/mL (≈ 599 µM)
MIC [1, 14]: 128 µg/mL (≈ 299 µM)
MBC [1, 15]: > 256 µg/mL
MIC [1, 15]: > 256 µg/mL
MBC ([1]; read-out: MBC 50, 11 CF Stenotrophomonas isolates): > 256 µg/mL
MIC50 [2]: > 256 µg/mL
MIC90 [2]: > 256 µg/mL
MBC ([2]; Acinetobacter isolate NB31): > 256 µg/mL
MIC ([2]; Acinetobacter isolate NB31): > 256 µg/mL
MBC ([2]; Acinetobacter isolate NB32): 256 µg/mL (≈ 599 µM)
MIC ([2]; Acinetobacter isolate NB32): 256 µg/mL (≈ 599 µM)
MBC ([2]; Acinetobacter isolate NB33): > 256 µg/mL
MIC ([2]; Acinetobacter isolate NB33): > 256 µg/mL
MBC ([2]; Acinetobacter isolate NB34): > 256 µg/mL
MIC ([2]; Acinetobacter isolate NB34): > 256 µg/mL
MBC ([2]; Acinetobacter isolate NB35): > 256 µg/mL
MIC ([2]; Acinetobacter isolate NB35): > 256 µg/mL
MBC ([2]; Acinetobacter isolate NB36): 128 µg/mL (≈ 299 µM)
MIC ([2]; Acinetobacter isolate NB36): 128 µg/mL (≈ 299 µM)
MBC ([2]; Acinetobacter isolate NB37): > 256 µg/mL
MIC ([2]; Acinetobacter isolate NB37): > 256 µg/mL
MBC ([2]; Acinetobacter isolate NB38): > 256 µg/mL
MIC ([2]; Acinetobacter isolate NB38): > 256 µg/mL
MBC ([2]; Acinetobacter isolate NB39): > 256 µg/mL
MIC ([2]; Acinetobacter isolate NB39): > 256 µg/mL
MBC ([2]; Acinetobacter isolate NB40): > 256 µg/mL
MIC ([2]; Acinetobacter isolate NB40): > 256 µg/mL
MBC ([2]; read-out: MBC 50, 10 Acinetobacter isolates): > 256 µg/mL
MBC 90 ([3]; 20 CF Pseudomonas isolates): >256 µg/mL
MIC50 ([3]; Pseudomonas aeruginosa): > 256 µg/mL
MIC90 ([3]; Pseudomonas aeruginosa): > 256 µg/mL
MBC [3, 16]: > 256 µg/mL
MIC [3, 16]: > 256 µg/mL
MBC [3, 17]: > 256 µg/mL
MIC [3, 17]: > 256 µg/mL
MBC [3, 18]: > 256 µg/mL
MIC [3, 18]: > 256 µg/mL
MBC [3, 19]: > 256 µg/mL
MIC [3, 19]: > 256 µg/mL
MBC [3, 20]: > 256 µg/mL
MIC [3, 20]: > 256 µg/mL
MBC [3, 21]: > 256 µg/mL
MIC [3, 21]: > 256 µg/mL
MBC [3, 22]: > 256 µg/mL
MIC [3, 22]: > 256 µg/mL
MBC [3, 23]: > 256 µg/mL
MIC [3, 23]: > 256 µg/mL
MBC [3, 24]: > 256 µg/mL
MIC [3, 24]: > 256 µg/mL
MBC [3, 25]: > 256 µg/mL
MIC [3, 25]: > 256 µg/mL
MBC [3, 26]: > 256 µg/mL
MIC [3, 26]: > 256 µg/mL
MBC [3, 27]: > 256 µg/mL
MIC [3, 27]: > 256 µg/mL
MBC [3, 28]: > 256 µg/mL
MIC [3, 28]: > 256 µg/mL
MBC [3, 29]: > 256 µg/mL
MIC [3, 29]: > 256 µg/mL
MBC [3, 30]: > 256 µg/mL
MIC [3, 30]: > 256 µg/mL
MBC [3, 31]: > 256 µg/mL
MIC [3, 31]: > 256 µg/mL
MBC [3, 32]: > 256 µg/mL
MIC [3, 32]: > 256 µg/mL
MBC [3, 33]: > 256 µg/mL
MIC [3, 33]: > 256 µg/mL
MBC [3, 34]: > 256 µg/mL
MIC [3, 34]: > 256 µg/mL
MBC [3, 35]: > 256 µg/mL
MIC [3, 35]: > 256 µg/mL
MBC ([3]; Pseudomonas aeruginosa, read-out: MBC 50, 20 CF Pseudomonas isolates): > 256 µg/mL
MBC ([3]; Pseudomonas aeruginosa, read-out: MBC 50, second MBC 50 line of the summary, Stenotrophomonas, values equal those of the CF Pseudomonas isolates): > 256 µg/mL
MIC90 [4]: 256 µg/mL (≈ 599 µM)
MIC50 ([4]; 10 CF Burkholderia isolates): 128 µg/mL (≈ 299 µM)
MBC ([4]; CF Burkholderia isolate NB21): > 256 µg/mL
MIC ([4]; CF Burkholderia isolate NB21): 256 µg/mL (≈ 599 µM)
MBC ([4]; CF Burkholderia isolate NB22): 256 µg/mL (≈ 599 µM)
MIC ([4]; CF Burkholderia isolate NB22): 128 µg/mL (≈ 299 µM)
MBC ([4]; CF Burkholderia isolate NB23): > 256 µg/mL
MIC ([4]; CF Burkholderia isolate NB23): > 256 µg/mL
MBC ([4]; CF Burkholderia isolate NB24): > 256 µg/mL
MIC ([4]; CF Burkholderia isolate NB24): 128 µg/mL (≈ 299 µM)
MBC ([4]; CF Burkholderia isolate NB25): 256 µg/mL (≈ 599 µM)
MIC ([4]; CF Burkholderia isolate NB25): 128 µg/mL (≈ 299 µM)
MBC ([4]; CF Burkholderia isolate NB26): 256 µg/mL (≈ 599 µM)
MIC ([4]; CF Burkholderia isolate NB26): 128 µg/mL (≈ 299 µM)
MBC ([4]; CF Burkholderia isolate NB27): > 256 µg/mL
MIC ([4]; CF Burkholderia isolate NB27): 128 µg/mL (≈ 299 µM)
MBC ([4]; CF Burkholderia isolate NB28b): 16 µg/mL (≈ 37.4 µM)
MIC ([4]; CF Burkholderia isolate NB28b): 16 µg/mL (≈ 37.4 µM)
MBC ([4]; CF Burkholderia isolate NB29): > 256 µg/mL
MIC ([4]; CF Burkholderia isolate NB29): 256 µg/mL (≈ 599 µM)
MBC ([4]; CF Burkholderia isolate NB30): 128 µg/mL (≈ 299 µM)
MIC ([4]; CF Burkholderia isolate NB30): 128 µg/mL (≈ 299 µM)

CCN1CCN(C(=O)N[C@@H](C(=O)N[C@@H]2C(=O)N3[C@@H]2SC(C)(C)[C@@H]3C(=O)O)c2ccccc2)C(=O)C1=O [Pipercillin]
MBC ([3]; CF Pseudomonas isolate NB1): 1024 µg/mL (≈ 1980 µM)
MIC ([3]; CF Pseudomonas isolate NB1): 1024 µg/mL (≈ 1980 µM)
MBC ([3]; CF Pseudomonas isolate NB2): 128 µg/mL (≈ 247 µM)
MIC ([3]; CF Pseudomonas isolate NB2): 128 µg/mL (≈ 247 µM)
MBC ([3]; CF Pseudomonas isolate NB3): >1024 µg/mL
MIC ([3]; CF Pseudomonas isolate NB3): >1024 µg/mL
MBC ([3]; CF Pseudomonas isolate NB4): 1024 µg/mL (≈ 1980 µM)
MIC ([3]; CF Pseudomonas isolate NB4): 512 µg/mL (≈ 989 µM)
MBC ([3]; CF Pseudomonas isolate NB5): >1024 µg/mL
MIC ([3]; CF Pseudomonas isolate NB5): >1024 µg/mL
MBC ([3]; CF Pseudomonas isolate NB6): >1024 µg/mL
MIC ([3]; CF Pseudomonas isolate NB6): 1024 µg/mL (≈ 1980 µM)
MBC ([3]; CF Pseudomonas isolate NB7): 1024 µg/mL (≈ 1980 µM)
MIC ([3]; CF Pseudomonas isolate NB7): 512 µg/mL (≈ 989 µM)
MBC ([3]; CF Pseudomonas isolate NB8): >1024 µg/mL
MIC ([3]; CF Pseudomonas isolate NB8): >1024 µg/mL
MBC ([3]; CF Pseudomonas isolate NB9): >1024 µg/mL
MIC ([3]; CF Pseudomonas isolate NB9): 512 µg/mL (≈ 989 µM)
MBC ([3]; CF Pseudomonas isolate NB10): 512 µg/mL (≈ 989 µM)
MIC ([3]; CF Pseudomonas isolate NB10): 256 µg/mL (≈ 495 µM)

From patent publication US20100092526A1, “NANOEMULSION THERAPEUTIC COMPOSITIONS AND METHODS OF USING THE SAME” (NanoBio Corporation, priority 2008, published 2010)
